Reference: patent US7285564B2, “Substituted 4-amino-1-(pyridylmethyl)piperidine and related compounds” (Theravance, Inc., priority 2002, dated 2007)

Test system: volume-induced bladder contractions
Assay: In vivo rat bladder assay
Conditions: intravenous; anesthetized female Sprague-Dawley rats; normalized to atropine response
Method: Female Sprague-Dawley rats (Harlan, Indianapolis, Ind.) weighing 200 to 300 g were anesthetized with urethane (1.5 g/kg, s.c., Sigma, St. Louis, Mo.), with a supplement of 0.25 g/kg, s.c. urethane as needed. Urethane was administered at a concentration of 0.25 g/mL.
Rats were prepared for surgery by shaving the neck and abdomen and cleansing with ethanol wipes. First, an incision was made on the ventral surface. An intravenous catheter was placed by isolating and ligating the femoral vein. […]
Thereafter, an intravenous dose of the test compound was administered and changes in VIBCAmp were recorded for 15 minutes. Atropine (0.1 mg/kg) was then administered intravenously (1 mL/kg) as a positive control and VIBCAmp and data was recorded for an additional 15 minutes. […]
Alternatively, after the vehicle, increasing cumulative intravenous doses of the test compound were administered at 15 minute intervals (1 mL/kg) and changes in VIBCAmp were recorded for 15 minutes. […]
The average VIBCAmp during the 5-15 minute period after test compound and atropine was determined and subtracted from the average VIBCAmp during the 5-15 minute post-vehicle period to obtain the test compound or atropine-induced change in VIBCAmp. […]

COc1ccncc1CN1CCC(N(CCCCCCCN2CC[C@@H](C(C(N)=O)(c3ccccc3)c3ccccc3)C2)C(C)C)CC1 [Example 1]
ID50 (volume-induced bladder contraction amplitude): less than or equal to 0.1 mg/kg
